Laboratory results from ChEMBL document CHEMBL5050844 (2019).
pIC50: −log10 of the molar value.

Tests used:
[1] = Induction of anti-CD3/CD28 antibodies-stimulated human T cell activation at 4 uM assessed fold increase in CD25 expression measured by ELISA assay; format: functional, T cell line
[2] = Induction of anti-CD3/CD28 antibodies-stimulated human T cell activation at 4 uM assessed fold increase in IL-2 secretion measured by ELISA assay; format: functional, T cell line
[3] = Induction of anti-CD3/CD28 antibodies-stimulated human T cell activation at 0.3 uM assessed fold increase in IL-2 secretion measured by ELISA assay; format: functional, T cell line
[4] = Induction of anti-CD3/CD28 antibodies-stimulated human T cell activation at 0.3 uM assessed fold increase in CD25 expression measured by ELISA assay; format: functional, T cell line
[5] = Induction of anti-CD3 antibodies-stimulated human T cell activation at 8 uM assessed fold increase in IL-2 secretion measured by ELISA assay; format: functional, T cell line; note: reference of the scale not given here
[6] = Induction of anti-CD3 antibodies-stimulated human T cell activation at 1 uM assessed fold increase in IL-2 secretion measured by ELISA assay; format: functional, T cell line; note: reference of the scale not given here
[7] = Induction of anti-CD3 antibodies-stimulated human T cell activation at 8 uM assessed fold increase in CD25 expression measured by ELISA assay; format: functional, T cell line; note: reference of the scale not given here
[8] = Induction of anti-CD3 antibodies-stimulated human T cell activation at 1 uM assessed fold increase in CD25 expression measured by ELISA assay; format: functional, T cell line; note: reference of the scale not given here
[9] = Induction of anti-CD3/CD28 antibodies-stimulated human T cell activation at 1 uM assessed fold increase in IL-2 secretion measured by ELISA assay; format: functional, T cell line
[10] = Induction of anti-CD3/CD28 antibodies-stimulated human T cell activation at 1 uM assessed fold increase in CD25 expression measured by ELISA assay; format: functional, T cell line
[11] = target: E3 ubiquitin-protein ligase CBL-B (Homo sapiens, UniProt Q13191); experiment: Inhibition of N-terminal Avi-tagged human CBL-B (36 to 427 residues) incubated with 60 nM Src kinase for 1.5 hrs followed by incubation with fluorescently labeled UbcH5B-Ub for 1 hr and measured by TR-FRET assay; format: single protein
Chain of E3 ubiquitin-protein ligase CBL-B (Q13191 whole entry, the tested form may be a part): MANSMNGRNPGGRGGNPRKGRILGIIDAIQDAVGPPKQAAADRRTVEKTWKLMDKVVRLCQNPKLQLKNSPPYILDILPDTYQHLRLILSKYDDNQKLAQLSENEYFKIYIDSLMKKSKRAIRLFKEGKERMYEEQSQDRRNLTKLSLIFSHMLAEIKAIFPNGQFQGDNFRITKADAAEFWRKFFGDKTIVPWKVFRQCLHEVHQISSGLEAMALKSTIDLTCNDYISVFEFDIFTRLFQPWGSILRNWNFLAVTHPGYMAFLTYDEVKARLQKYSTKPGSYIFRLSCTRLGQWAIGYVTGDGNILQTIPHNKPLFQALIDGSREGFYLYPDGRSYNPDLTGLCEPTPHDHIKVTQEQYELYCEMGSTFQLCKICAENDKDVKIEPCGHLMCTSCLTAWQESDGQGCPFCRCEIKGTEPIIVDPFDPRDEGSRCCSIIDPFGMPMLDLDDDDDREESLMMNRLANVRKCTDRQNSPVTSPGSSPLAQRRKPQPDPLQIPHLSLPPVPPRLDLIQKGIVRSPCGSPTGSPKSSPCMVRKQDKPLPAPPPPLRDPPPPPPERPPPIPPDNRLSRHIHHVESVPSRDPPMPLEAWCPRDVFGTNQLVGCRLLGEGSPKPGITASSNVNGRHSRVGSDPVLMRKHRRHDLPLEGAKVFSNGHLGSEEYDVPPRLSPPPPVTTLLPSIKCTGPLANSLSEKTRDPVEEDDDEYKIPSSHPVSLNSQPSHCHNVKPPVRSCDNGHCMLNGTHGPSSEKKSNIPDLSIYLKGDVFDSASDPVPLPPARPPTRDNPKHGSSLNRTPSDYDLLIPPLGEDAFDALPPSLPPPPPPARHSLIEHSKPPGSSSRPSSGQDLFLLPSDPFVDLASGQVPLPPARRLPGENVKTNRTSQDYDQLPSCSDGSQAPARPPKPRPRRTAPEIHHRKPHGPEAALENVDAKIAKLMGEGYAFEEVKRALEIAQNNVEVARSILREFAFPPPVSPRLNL

SMILES	fold change (FC) [1]	fold change (FC) [2]	fold change (FC) [3]	fold change (FC) [4]	fold change (FC) [5]	fold change (FC) [6]	fold change (FC) [7]	fold change (FC) [8]	fold change (FC) [9]	fold change (FC) [10]	fold change (FC) ([2]; 4 µM)	fold change (FC) ([3]; 0.3 µM)	fold change (FC) ([6]; 1 µM)	fold change (FC) ([7]; 8 µM)	fold change (FC) ([9]; 1 µM)	pIC50 [11]
C[C@H](Cc1nncn1C)c1cccc(NC(=O)c2coc(C(F)(F)F)n2)c1	1.01	1.01	<=1	1.01	0.101	0.051	0.801	0.601	1.01	1.01	–	–	–	–	–	–
CNS(=O)(=O)c1cc(C(=O)Nc2cccc([C@H](C)Cc3nncn3C)c2)nc(C(F)(F)F)c1	1.01	<=1	1.01	1.01	>=0.201	0.151	>=1.001	0.801	1.01	1.01	–	–	–	–	–	–
C[C@H](Sc1nncn1C)c1cccc(NC(=O)c2cc3c(Cl)cccc3[nH]2)c1	1.01	2.51	1.01	<=1	>=0.201	<=0.05	0.801	0.601	1.01	1.01	–	–	–	–	–	–
Cn1cnnc1[C@H]1CC[C@H]1c1cccc(N2Cc3c(cccc3C(F)(F)F)C2=O)c1 (racemic)	1.01	1.01	<=1	<=1	0.101	<=0.05	<=0.6	<=0.6	1.01	<=1	–	–	–	–	–	–
C[C@H](Sc1nncn1C)c1cccc(NC(=O)c2cc(C(C)(C)O)cc(C(F)(F)F)n2)c1	1.01	1.01	<=1	1.01	<=0.05	<=0.05	>=1.001	0.601	<=1	1.01	–	–	–	–	–	–
C[C@H](Cc1nncn1C)c1cccc(NC(=O)c2cccc(C(F)(F)CO)n2)c1	>=1.76	<=1	<=1	1.01	0.051	<=0.05	<=0.6	<=0.6	<=1	1.31	–	–	–	–	–	–
CC1CCc2c1n[nH]c2C(=O)Nc1cccc([C@H](C)Cc2nncn2C)c1 (stereo partly drawn)	1.01	5	1.01	<=1	>=0.201	0.101	>=1.001	0.601	2.51	<=1	–	–	–	–	–	–
Cc1cc(C(=O)Nc2cccc([C@H](C)Sc3nncn3C)c2)nc2ccccc12	1.01	2.51	1.01	1.01	0.101	0.051	0.801	0.601	1.01	1.01	–	–	–	–	–	–
Cc1nc2cc([C@H](C)Sc3nncn3C)cc(NC(=O)c3cccc(C(F)(F)F)n3)c2o1	>=1.76	>=7.5	2.51	1.31	>=0.201	<=0.05	>=1.001	0.601	5	1.51	–	–	–	–	–	–
C[C@H](O)CNc1cc([C@H](C)Cc2nncn2C)cc(N2Cc3c(cccc3C(F)(F)F)C2=O)n1	1.01	1.01	1.01	1.01	0.101	0.051	0.601	0.601	1.01	1.01	–	–	–	–	–	–
C[C@H](Cc1nncn1C)c1cc(OC2COC2)nc(N2Cc3c(cccc3C(F)(F)F)C2=O)c1	1.31	1.01	1.01	1.01	>=0.201	0.101	>=1.001	0.601	1.01	1.01	–	–	–	–	–	–
C[C@H](Cc1nncn1C)c1cccc(N2Cc3c(cc(C4CC4)nc3C3CC3)C2=O)c1	>=1.76	5	1.01	1.01	>=0.201	0.051	0.801	0.601	1.01	1.01	–	–	–	–	–	–
Cn1cnnc1C(F)(F)[C@](C)(F)c1cccc(N2Cc3c(cc(C(=O)N4CC(C(F)F)C4)cc3C(F)(F)F)C2=O)c1	1.01	1.01	1.01	1.01	0.051	0.051	0.801	0.601	1.01	1.01	–	–	–	–	–	–
C[C@H](Cc1nncn1C)c1cccc(N2Cc3c(ccnc3C(C)(C)F)C2=O)c1	–	>=7.5	–	–	–	–	–	–	–	–	–	–	–	–	–	–
C[C@H](Sc1nncn1C)c1cccc(NC(=O)c2cc(C(F)(F)F)cc(C3CC3)n2)c1	1.31	1.01	<=1	1.01	<=0.05	<=0.05	<=0.6	<=0.6	<=1	1.01	–	–	–	–	–	–
Cc1ccnn1CC(C)c1cccc(NC(=O)c2cccc(C(F)(F)F)n2)c1 (stereo not drawn)	1.51	1.01	<=1	1.51	0.051	0.051	<=0.6	<=0.6	<=1	1.31	–	–	–	–	–	–
Cn1cnnc1C[C@]1(c2cccc(N3Cc4c(cccc4C(F)(F)F)C3=O)c2)C[C@H](CO)C1	1.51	5	1.01	1.31	>=0.201	0.101	>=1.001	0.801	2.51	1.51	–	–	–	–	–	–
Cc1ccc(C(=O)Nc2cccc([C@@H](C)Cc3nccn3C)c2)nc1C1CC1	–	–	–	–	–	–	–	–	–	–	1.01	1.01	<=0.05	0.601	1.01	–
COc1ccc2c(c1)CN(Cc1cc3c(c(C(F)(F)F)c1)CN(c1cccc(C4(Cc5nncn5C)COC4)c1)C3=O)C2	–	–	>=7.5	1.31	–	>=0.201	–	>=1.001	>=7.5	1.31	–	–	–	–	–	> 7.00
Cc1cc(C(=O)Nc2cccc(C3(C(F)(F)c4nncn4C)CC3)c2)nc(C2CC2)n1	–	–	1.01	1.01	–	0.101	–	0.601	2.51	1.01	–	–	–	–	–	> 7.00
CN1CCN(c2cc3c(c(C(F)(F)F)c2)CN(c2cccc(C4(Cc5nncn5C)COC4)c2)C3=O)CC12CC2	–	–	2.51	1.31	–	0.151	–	>=1.001	5	1.51	–	–	–	–	–	> 7.00
Cn1cnnc1CC1(c2cccc(N3Cc4c(cc(CN5CCC(C)(C#N)CC5)cc4C(F)(F)F)C3=O)c2)COC1	–	–	>=7.5	1.31	–	0.151	–	>=1.001	>=7.5	1.31	–	–	–	–	–	> 7.00
C[C@H](c1cc2c(c(C(F)(F)F)c1)CN(c1cccc(C3(Cc4nncn4C)COC3)c1)C2=O)N1CC2CC2C1 (stereo partly drawn)	–	–	>=7.5	1.31	–	>=0.201	–	>=1.001	>=7.5	1.31	–	–	–	–	–	> 7.00
C[C@@H](c1cc2c(c(C(F)(F)F)c1)CN(c1cccc(C3(C(F)(F)c4nncn4C)COC3)c1)C2=O)N1CC[C@H](F)C1	–	–	2.51	1.31	–	>=0.201	–	>=1.001	>=7.5	1.51	–	–	–	–	–	> 7.00
